Measured values reported in ChEMBL document CHEMBL3867470, “Synthesis and biological evaluation of heteroaryl styryl sulfone derivatives as anticancer agents” (Bioorg Med Chem Lett, 2016).
Active and inactive are the calls of the source. The calls are words filed in the database; no cut-off is given here.

How the values were obtained:
[1] = Antiproliferative activity against human HCT116 cells measured after 72 hrs by MTT assay; assay type: functional; conditions: HCT-116, 72 h
[2] = Antiproliferative activity against human A2780 cells measured after 72 hrs by MTT assay; assay type: functional; conditions: A2780, 72 h
[3] = test system: A2780; assay: Induction of apoptosis in human A2780 cells assessed as cleaved PARP level at 300 to 3000 nM measured after 24 hrs by Western blot analysis; assay type: functional, cell-based
[4] = Cell cycle arrest in human A2780 cells assessed as accumulation at S-phase at 5 times GI50 measured after 24 hrs by propidium iodide staining-based FACS analysis (reference value: 19%); assay type: functional
[5] = Antiproliferative activity against human MCF7 cells measured after 72 hrs by MTT assay; assay type: functional; conditions: MCF7, 72 h
[6] = Cell cycle arrest in human A2780 cells assessed as accumulation at Sub-G1 phase at 5 times GI50 measured after 24 hrs by propidium iodide staining-based FACS analysis (reference value: 2%); assay type: functional
[7] = Antiproliferative activity against human DU145 cells measured after 72 hrs by MTT assay; assay type: functional; conditions: DU-145, 72 h
[8] = Antiproliferative activity against human COLO205 cells measured after 72 hrs by MTT assay; assay type: functional; conditions: COLO 205, 72 h
[9] = test system: A2780; assay: Induction of apoptosis in human A2780 cells assessed as viable cells at 5 times GI50 measured after 24 hrs by Annexin V/propidium iodide staining-based FACS analysis (reference value: 92.6%); assay type: functional
[10] = Cell cycle arrest in human A2780 cells assessed as accumulation at S-phase at GI50 measured after 24 hrs by propidium iodide staining-based FACS analysis (reference value: 19%); assay type: functional
[11] = Antiproliferative activity against human DaOY cells measured after 72 hrs by MTT assay; assay type: functional
[12] = test system: A2780; assay: Induction of apoptosis in human A2780 cells assessed as early apoptotic cells at GI50 measured after 24 hrs by Annexin V/propidium iodide staining-based FACS analysis (reference value: 2.81%); assay type: functional
[13] = Antiproliferative activity against human PANC1 cells measured after 72 hrs by MTT assay; assay type: functional; conditions: PANC-1, 72 h
[14] = Cell cycle arrest in human A2780 cells assessed as accumulation at G1-phase at GI50 measured after 24 hrs by propidium iodide staining-based FACS analysis (reference value: 53%); assay type: functional
[15] = Antiproliferative activity against human C4-2B cells measured after 72 hrs by MTT assay; assay type: functional; conditions: LNCaP C4-2B
[16] = Cell cycle arrest in human A2780 cells assessed as accumulation at Sub-G1 phase at GI50 measured after 24 hrs by propidium iodide staining-based FACS analysis (reference value: 2%); assay type: functional
[17] = Antiproliferative activity against human LNCAP cells measured after 72 hrs by MTT assay; assay type: functional
[18] = Antiproliferative activity against human PC3 cells measured after 72 hrs by MTT assay; assay type: functional; conditions: PC-3, 72 h
[19] = test system: A2780; assay: Induction of apoptosis in human A2780 cells assessed as viable cells at GI50 measured after 24 hrs by Annexin V/propidium iodide staining-based FACS analysis (reference value: 92.6%); assay type: functional
[20] = target: Serine/threonine-protein kinase PLK1 (Homo sapiens) (UniProt P53350); assay: Inhibition of Plk1 in human A2780 cells assessed as reduction in CDC25C phosphorylation at Ser198 residue at 300 to 3000 nM measured after 24 hrs by Western blot analysis; assay type: cell-based
Chain of Serine/threonine-protein kinase PLK1 (Homo sapiens) (P53350 whole entry): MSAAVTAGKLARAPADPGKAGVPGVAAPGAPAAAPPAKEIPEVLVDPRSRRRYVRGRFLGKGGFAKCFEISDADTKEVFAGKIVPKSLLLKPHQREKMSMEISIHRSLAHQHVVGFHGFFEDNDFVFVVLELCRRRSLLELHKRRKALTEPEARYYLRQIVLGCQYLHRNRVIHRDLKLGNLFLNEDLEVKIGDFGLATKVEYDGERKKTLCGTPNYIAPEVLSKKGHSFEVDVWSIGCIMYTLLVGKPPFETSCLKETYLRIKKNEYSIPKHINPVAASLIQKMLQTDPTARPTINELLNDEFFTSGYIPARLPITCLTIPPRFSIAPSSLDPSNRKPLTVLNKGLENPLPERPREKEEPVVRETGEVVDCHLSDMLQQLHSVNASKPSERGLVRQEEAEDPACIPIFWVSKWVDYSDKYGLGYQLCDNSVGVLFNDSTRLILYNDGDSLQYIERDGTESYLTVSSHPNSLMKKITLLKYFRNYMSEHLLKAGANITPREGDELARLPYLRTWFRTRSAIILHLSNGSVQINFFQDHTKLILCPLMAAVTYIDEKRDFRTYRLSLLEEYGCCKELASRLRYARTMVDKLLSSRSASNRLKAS

[21] = Cell cycle arrest in human A2780 cells assessed as accumulation at G1-phase at 5 times GI50 measured after 24 hrs by propidium iodide staining-based FACS analysis (reference value: 53%); assay type: functional
[22] = test system: A2780; assay: Induction of apoptosis in human A2780 cells assessed as downregulation of Mcl1 level at 300 to 3000 nM measured after 24 hrs by Western blot analysis; assay type: functional, cell-based
[23] = test system: A2780; assay: Induction of apoptosis in human A2780 cells assessed as late apoptotic cells at GI50 measured after 24 hrs by Annexin V/propidium iodide staining-based FACS analysis (reference value: 4.23%); assay type: functional
[24] = Cytotoxicity against human WI38 cells assessed as reduction in cell viability measured after 72 hrs by MTT assay; assay type: toxicity, cell-based, WI-38
[25] = Cell cycle arrest in human A2780 cells assessed as accumulation at G2/M-phase at 5 times GI50 measured after 24 hrs by propidium iodide staining-based FACS analysis (reference value: 26%); assay type: functional
[26] = Cytotoxicity against human MRC5 cells assessed as reduction in cell viability measured after 72 hrs by MTT assay; assay type: toxicity, cell-based
[27] = Antiproliferative activity against human KM12 cells measured after 72 hrs by MTT assay; assay type: functional; conditions: KM12, 72 h
[28] = test system: A2780; assay: Induction of apoptosis in human A2780 cells assessed as necrotic cells at GI50 measured after 24 hrs by Annexin V/propidium iodide staining-based FACS analysis (reference value: 0.34%); assay type: functional
[29] = Antiproliferative activity against human 22Rv1 cells measured after 72 hrs by MTT assay; assay type: functional, CWR22R; conditions: 22Rv1, 72 h
[30] = Cell cycle arrest in human A2780 cells assessed as accumulation at G2/M-phase at GI50 measured after 24 hrs by propidium iodide staining-based FACS analysis (reference value: 26%); assay type: functional
[31] = Antiproliferative activity against human HT-29 cells measured after 72 hrs by MTT assay; assay type: functional; conditions: HT-29, 72 h
[32] = test system: A2780; assay: Induction of apoptosis in human A2780 cells assessed as late apoptotic cells at 5 times GI50 measured after 24 hrs by Annexin V/propidium iodide staining-based FACS analysis (reference value: 4.23%); assay type: functional
[33] = test system: A2780; assay: Induction of apoptosis in human A2780 cells assessed as early apoptotic cells at 5 times GI50 measured after 24 hrs by Annexin V/propidium iodide staining-based FACS analysis (reference value: 2.81%); assay type: functional
[34] = test system: A2780; assay: Induction of apoptosis in human A2780 cells assessed as necrotic cells at 5 times GI50 measured after 24 hrs by Annexin V/propidium iodide staining-based FACS analysis (reference value: 0.34%); assay type: functional
[35] = test system: A2780; assay: Induction of apoptosis in human A2780 cells assessed as cleaved PARP level at 200 to 1000 nM measured after 24 hrs by Western blot analysis; assay type: functional, cell-based
[36] = target: Serine/threonine-protein kinase PLK1 (Homo sapiens) (UniProt P53350); conditions: A2780, 200 to 1000 nM
Description: Inhibition of Plk1 in human A2780 cells assessed as reduction in CDC25C phosphorylation at Ser198 residue at 200 to 1000 nM measured after 24 hrs by Western blot analysis

[37] = test system: A2780; assay: Induction of apoptosis in human A2780 cells assessed as downregulation of Mcl1 level at 200 to 1000 nM measured after 24 hrs by Western blot analysis; assay type: functional, cell-based

COc1cc(OC)c(/C=C/S(=O)(=O)Nc2ccc(Cl)nc2)c(OC)c1
GI50 [1]: 5640 nM
GI50 [2]: 2600 nM

CCOc1ccc(NS(=O)(=O)/C=C/c2c(OC)cc(OC)cc2OC)cc1
GI50 [1]: 350 nM
Activity [3]: Active
Activity [4]: 16%
GI50 [5]: 530 nM
Activity [6]: 19%
GI50 [7]: 520 nM
GI50 [8]: 590 nM
Activity [9]: 70.89%
Activity [10]: 15%
GI50 [11]: 340 nM
Activity [12]: 10.03%
GI50 [13]: 300 nM
Activity [14]: 50%
GI50 [15]: 450 nM
Activity [16]: 5%
GI50 [17]: 520 nM
GI50 [18]: 600 nM
Activity [19]: 83.21%
inhibition [20]: Active
Activity [21]: 21%
Activity [22]: Active
Activity [23]: 5.92%
GI50 at 72 h [24]: > 10000 nM
Activity [25]: 44%
GI50 at 72 h [26]: > 10000 nM
GI50 [27]: 340 nM
Activity [28]: 0.78%
GI50 [29]: 530 nM
Activity [30]: 29%
GI50 [2]: 310 nM
GI50 [31]: 580 nM
Activity [32]: 7.57%
Activity [33]: 20.22%
Activity [34]: 1.17%

COc1cc(OC)c(/C=C/S(=O)(=O)Cc2cnc(Cl)cn2)c(OC)c1
GI50 [1]: > 10000 nM
GI50 [2]: 4760 nM

CNc1ncc(OC)c(CS(=O)(=O)/C=C/c2c(OC)cc(OC)cc2OC)n1
GI50 [1]: > 10000 nM
GI50 [2]: 7540 nM

COc1ccc(NS(=O)(=O)/C=C/c2c(OC)cc(OC)cc2OC)cc1
GI50 [1]: 10 nM
GI50 [2]: 10 nM

COc1cc(OC)c(/C=C/S(=O)(=O)Cc2nc(N)ncc2OC)c(OC)c1
GI50 [1]: > 10000 nM
GI50 [2]: > 10000 nM

COc1cc(OC)c(/C=C/S(=O)(=O)Cc2ccc(OC)c(NCC(=O)[O-])c2)c(OC)c1.[Na+] [RIGOSERTIB SODIUM]
Activity [35]: Active
GI50 [1]: 60 nM
Activity [4]: 17%
Activity [6]: 30%
Activity [9]: 69.9%
Activity [10]: 19%
Activity [12]: 5.16%
Activity [14]: 48%
Activity [16]: 5%
Activity [19]: 91.82%
inhibition [36]: Active
Activity [21]: 20%
Activity [23]: 2.75%
Activity [25]: 33%
Activity [28]: 0.25%
Activity [30]: 28%
GI50 [2]: 40 nM
Activity [32]: 2.25%
Activity [33]: 27.41%
Activity [34]: 0.29%
Activity [37]: Active

CCOc1cc(OC)cc(OC)c1/C=C/S(=O)(=O)Nc1ccc(OC)nc1
GI50 [1]: 420 nM
GI50 [2]: 470 nM

COc1cc(OC)c(/C=C/S(=O)(=O)Nc2ccc(Cl)cc2)c(OC)c1
GI50 [1]: > 10000 nM
GI50 [2]: > 10000 nM

CCOc1cnc(CS(=O)(=O)/C=C/c2c(OC)cc(OC)cc2OC)cn1
GI50 [1]: 1280 nM
GI50 [2]: 540 nM

COc1cc(OC)c(/C=C/S(=O)(=O)Cc2cnc(OC)cn2)c(OC)c1
GI50 [1]: 950 nM
GI50 [2]: 490 nM

COc1cc(OC)c(/C=C/S(=O)(=O)Cc2nc(Cl)ncc2OC)c(OC)c1
GI50 [1]: > 10000 nM
GI50 [2]: > 10000 nM

COc1cc(OC)c(/C=C/S(=O)(=O)Nc2cnc(Cl)cn2)c(OC)c1
GI50 [1]: > 10000 nM
GI50 [2]: > 10000 nM

COc1cc(OC)c(/C=C/S(=O)(=O)Nc2ccc(OC)nc2)c(OC)c1
GI50 [1]: 1000 nM
GI50 [2]: 380 nM

COc1cc(OC)c(/C=C/S(=O)(=O)Cc2cnc(OC)c(OC)c2)c(OC)c1
GI50 [1]: 2810 nM
GI50 [2]: 930 nM
